According to ChEMBL document CHEMBL5120808, “6-Aryl-quinazolines as novel GABAB receptor positive allosteric modulators” (Bioorg Med Chem Lett, 2022):
pEC50: −log10 of the molar value. Calls of active or inactive are those of the source. The rule behind the calls is not given here.

What was measured:
[1] = Metabolic stability in rat assessed as parent compound remaining; assay type: ADME
[2] = Metabolic stability in human assessed as parent compound remaining; assay type: ADME
GABA-B receptor = GABA-B receptor (Homo sapiens, UniProt O75899+Q9UBS5); test: Positive allosteric modulation of GABA-B receptor (unknown origin) assessed as stimulation of [35S]GTPgammaS binding by [35S]GTPgammaS binding assay; assay type: functional
Sequence of GABA-B receptor (Q9UBS5 whole entry): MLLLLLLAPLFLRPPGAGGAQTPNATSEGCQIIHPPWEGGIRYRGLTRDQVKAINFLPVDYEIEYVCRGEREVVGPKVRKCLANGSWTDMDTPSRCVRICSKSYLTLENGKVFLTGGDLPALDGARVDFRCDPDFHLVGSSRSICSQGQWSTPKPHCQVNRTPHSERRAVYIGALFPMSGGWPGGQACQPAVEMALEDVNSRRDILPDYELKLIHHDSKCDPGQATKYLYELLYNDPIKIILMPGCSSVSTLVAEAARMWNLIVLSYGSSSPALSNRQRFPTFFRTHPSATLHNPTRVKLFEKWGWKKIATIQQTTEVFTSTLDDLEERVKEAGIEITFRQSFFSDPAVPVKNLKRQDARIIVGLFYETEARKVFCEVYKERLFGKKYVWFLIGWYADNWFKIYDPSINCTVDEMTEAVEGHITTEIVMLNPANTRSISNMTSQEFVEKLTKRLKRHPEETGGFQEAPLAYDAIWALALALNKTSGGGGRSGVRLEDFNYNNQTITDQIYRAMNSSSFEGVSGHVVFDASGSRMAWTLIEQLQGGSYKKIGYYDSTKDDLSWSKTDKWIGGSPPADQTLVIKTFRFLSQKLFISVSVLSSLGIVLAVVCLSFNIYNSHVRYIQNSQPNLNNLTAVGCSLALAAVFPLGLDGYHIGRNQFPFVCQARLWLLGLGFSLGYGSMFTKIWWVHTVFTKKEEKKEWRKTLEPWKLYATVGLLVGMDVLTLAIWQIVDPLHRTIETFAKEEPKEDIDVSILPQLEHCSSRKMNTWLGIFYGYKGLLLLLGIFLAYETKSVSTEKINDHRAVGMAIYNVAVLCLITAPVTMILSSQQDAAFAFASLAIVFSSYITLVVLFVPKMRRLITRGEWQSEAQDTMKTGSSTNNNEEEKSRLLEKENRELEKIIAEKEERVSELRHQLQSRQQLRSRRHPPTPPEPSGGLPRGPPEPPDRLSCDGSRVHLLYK
Sequence of GABA-B receptor (O75899 whole entry): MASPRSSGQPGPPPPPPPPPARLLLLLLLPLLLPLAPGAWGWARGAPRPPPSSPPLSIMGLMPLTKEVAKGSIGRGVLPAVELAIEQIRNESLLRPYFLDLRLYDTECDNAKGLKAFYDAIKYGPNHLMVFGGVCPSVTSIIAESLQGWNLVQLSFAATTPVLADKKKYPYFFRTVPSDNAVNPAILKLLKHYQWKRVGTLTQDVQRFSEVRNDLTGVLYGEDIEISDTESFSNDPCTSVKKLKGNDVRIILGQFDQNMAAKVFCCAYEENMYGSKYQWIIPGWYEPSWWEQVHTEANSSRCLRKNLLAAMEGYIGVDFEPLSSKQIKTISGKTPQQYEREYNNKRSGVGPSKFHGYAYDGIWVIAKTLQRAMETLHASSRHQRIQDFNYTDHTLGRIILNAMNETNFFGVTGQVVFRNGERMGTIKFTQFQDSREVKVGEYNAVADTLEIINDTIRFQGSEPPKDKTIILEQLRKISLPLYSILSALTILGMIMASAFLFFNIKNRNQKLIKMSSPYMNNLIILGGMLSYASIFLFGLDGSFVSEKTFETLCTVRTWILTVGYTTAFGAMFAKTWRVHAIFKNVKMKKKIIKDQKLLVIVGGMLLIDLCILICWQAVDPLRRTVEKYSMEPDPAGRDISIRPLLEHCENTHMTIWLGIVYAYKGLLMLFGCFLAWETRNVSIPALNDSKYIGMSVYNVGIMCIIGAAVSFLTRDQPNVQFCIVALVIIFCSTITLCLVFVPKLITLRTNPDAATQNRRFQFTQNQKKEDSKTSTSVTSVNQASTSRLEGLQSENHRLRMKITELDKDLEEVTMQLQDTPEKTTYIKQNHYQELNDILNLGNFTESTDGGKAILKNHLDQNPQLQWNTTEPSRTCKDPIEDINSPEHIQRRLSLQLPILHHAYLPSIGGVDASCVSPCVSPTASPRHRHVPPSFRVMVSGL

[3] = Metabolic stability in mouse assessed as parent compound remaining; assay type: ADME
Mus musculus [4] = test: Potentiation of baclofen induced skeletal muscle relaxation in po dosed NMRI mouse assessed as effective dose by Litchfield-Wilcoxon method; assay type: functional
[5] = AUC (0 to 24 hrs) in NMRI mouse brain at 10 mg/kg, po measured up to 24 hrs; assay type: ADME, organism-based; parameters: time < 24 hrs, dose 10 mg/kg, route po
[6] = Cmax in NMRI mouse brain at 10 mg/kg, po measured up to 24 hrs; assay type: ADME, organism-based; parameters: time < 24 hrs, dose 10 mg/kg, route po
[7] = Tmax in NMRI mouse plasma at 10 mg/kg, po measured up to 24 hrs; assay type: ADME, organism-based
[8] = Half life in NMRI mouse brain at 10 mg/kg, po measured up to 24 hrs; assay type: ADME, organism-based
[9] = AUC (0 to 24 hrs) in NMRI mouse plasma at 10 mg/kg, po measured up to 24 hrs; assay type: ADME, organism-based; parameters: time < 24 hrs, dose 10 mg/kg, route po
[10] = Tmax in NMRI mouse brain at 10 mg/kg, po measured up to 24 hrs; assay type: ADME, organism-based
Mus musculus [11] = test: Potentiation of baclofen induced skeletal muscle relaxation in NMRI mouse at 3 to 30 mg/kg, po by traction test; assay type: functional, organism-based; conditions: dose 3-30 mg/kg
Mus musculus [12] = test: Potentiation of baclofen induced loss of righting reflex in po dosed NMRI mouse assessed as effective dose by Litchfield-Wilcoxon method; assay type: functional
[13] = Cmax in NMRI mouse plasma at 10 mg/kg, po measured up to 24 hrs; assay type: ADME, organism-based; parameters: dose 10 mg/kg, time < 24 hrs, route po

Question: Which Stability [1] does the source give for `Clc1nc(N[C@@H]2C[C@H]3CC[C@@H]2C3)c2cc(-c3ccc(Cl)c(Cl)c3)ccc2n1` here?
Answer: Its Stability is 59%.

Question: What about the Stability [2] of the same compound?
Answer: Its Stability is 69%.

Question: What about the pEC50 (GABA-B receptor) of the same compound?
Answer: Its pEC50 is 6.47.

Question: And the Stability [3]?
Answer: The Stability was 67%.

Question: Which results are given for `Cc1nc(N[C@@H]2C[C@H]3CC[C@@H]2C3)c2cc(-c3cccc(Cl)c3)ccc2n1`?
Answer: Stability [1]: 23%; Stability [2]: 50%; pEC50 (GABA-B receptor): 6.70; Stability [3]: 27%

Question: Which Stability [1] does the source give for `Cc1nc(N[C@@H]2C[C@H]3CC[C@@H]2C3)c2cc(-c3ccc(Cl)c(Cl)c3)ccc2n1` here?
Answer: The Stability was 63%.

Question: And the Stability [2]?
Answer: The Stability was 56%.

Question: What about the pEC50 (GABA-B receptor) of the same compound?
Answer: Its pEC50 is 6.38.

Question: And the Stability [3]?
Answer: Its Stability is 74%.

Question: Which Stability [1] does the source give for `Cc1nc(N[C@@H]2C[C@H]3CC[C@@H]2C3)c2cc(-c3ccc(C(F)(F)F)cc3)ccc2n1` here?
Answer: Its Stability is 77%.

Question: What about the Stability [2] of the same compound?
Answer: The Stability was 66%.

Question: What about the pEC50 (GABA-B receptor) of the same compound?
Answer: Its pEC50 is 6.11.

Question: And the Stability [3]?
Answer: Its Stability is 66%.

Question: With `Cc1nc(N[C@@H]2C[C@H]3CC[C@@H]2C3)c2cc(-c3cc(Cl)cc(Cl)c3)ccc2n1` as the compound, how does the Stability [1] read?
Answer: The Stability was 37%.

Question: And the Stability [2]?
Answer: The Stability was 62%.

Question: And the pEC50 (GABA-B receptor)?
Answer: Its pEC50 is 7.01.

Question: And the Stability [3]?
Answer: Its Stability is 44%.

Question: With `Cc1nc(N[C@@H]2C[C@H]3CC[C@@H]2C3)c2cc(-c3ccc(Cl)cc3)ccc2n1` as the compound, how does the ED50 (Mus musculus [4]) read?
Answer: The ED50 was 12.7 mg/kg.

Question: And the Stability [1]?
Answer: The Stability was 49%.

Question: What about the Stability [2] of the same compound?
Answer: The Stability was 47%.

Question: What about the pEC50 (GABA-B receptor) of the same compound?
Answer: The pEC50 was 6.35.

Question: And the Stability [3]?
Answer: Its Stability is 39%.

Question: Which Stability [1] does the source give for `Clc1cc(Cl)cc(-c2ccc3nc(Cl)nc(N[C@@H]4C[C@H]5CC[C@@H]4C5)c3c2)c1` here?
Answer: Its Stability is 76%.

Question: And the Stability [2]?
Answer: Its Stability is 85%.

Question: And the Stability [3]?
Answer: The Stability was 62%.

Question: For `Fc1ccc(-c2ccc3nc(Cl)nc(N[C@@H]4C[C@H]5CC[C@@H]4C5)c3c2)cc1`, which Stability [1] is on record?
Answer: Its Stability is 36%.

Question: And the Stability [2]?
Answer: Its Stability is 47%.

Question: And the pEC50 (GABA-B receptor)?
Answer: Its pEC50 is 6.53.

Question: And the Stability [3]?
Answer: The Stability was 53%.

Question: With `Cc1nc(N[C@@H]2C[C@H]3CC[C@@H]2C3)c2cc(-c3ccccc3Cl)ccc2n1` as the compound, how does the Stability [1] read?
Answer: The Stability was 31%.

Question: And the Stability [2]?
Answer: Its Stability is 57%.

Question: What about the pEC50 (GABA-B receptor) of the same compound?
Answer: The pEC50 was 6.30.

Question: What about the Stability [3] of the same compound?
Answer: The Stability was 23%.

Question: For `Clc1ccc(-c2ccc3nc(Cl)nc(N[C@@H]4C[C@H]5CC[C@@H]4C5)c3c2)cc1`, which ED50 (Mus musculus [4]) is on record?
Answer: Its ED50 is 25.6 mg/kg.

Question: And the Stability [1]?
Answer: The Stability was 85%.

Question: What about the Stability [2] of the same compound?
Answer: The Stability was 46%.

Question: And the pEC50 (GABA-B receptor)?
Answer: Its pEC50 is 6.68.

Question: And the Stability [3]?
Answer: The Stability was 40%.

Question: Which results are given for `FC(F)(F)c1ccc(-c2ccc3nc(Cl)nc(N[C@@H]4C[C@H]5CC[C@@H]4C5)c3c2)cc1`?
Answer: AUC(0-t) at 24 h [5]: 852 ng·h/mL; Cmax [6]: 100 ng/mL; Tmax [7]: 1 h; half-life [8]: 536 min; ED50 (Mus musculus [4]): 8.1 mg/kg; Stability [1]: 84%; Stability [2]: 73%; AUC(0-t) at 24 h [9]: 4660 ng·h/mL; Tmax [10]: 2 h; pEC50 (GABA-B receptor): 6.20; Stability [3]: 95%; Activity (Mus musculus [11]): Active; ED50 (Mus musculus [12]): 2.9 mg/kg; Cmax [13]: 586 ng/mL

Question: Which Stability [1] does the source give for `Cc1ncc(-c2ccc(C(F)(F)F)cc2)c(N[C@@H]2C[C@H]3CC[C@@H]2C3)n1` here?
Answer: Its Stability is 24%.

Question: What about the Stability [2] of the same compound?
Answer: The Stability was 65%.

Question: And the Stability [3]?
Answer: The Stability was 42%.

Question: Which results are given for `Cc1nc(N[C@@H]2C[C@H]3CC[C@@H]2C3)c2cc(-c3cccc(C(F)(F)F)c3)ccc2n1`?
Answer: Stability [1]: 41%; Stability [2]: 75%; pEC50 (GABA-B receptor): 6.85; Stability [3]: 41%

Question: Which Stability [1] does the source give for `FC(F)(F)c1cccc(-c2ccc3nc(Cl)nc(N[C@@H]4C[C@H]5CC[C@@H]4C5)c3c2)c1` here?
Answer: Its Stability is 67%.

Question: What about the Stability [2] of the same compound?
Answer: The Stability was 58%.

Question: What about the pEC50 (GABA-B receptor) of the same compound?
Answer: The pEC50 was 7.05.

Question: And the Stability [3]?
Answer: Its Stability is 63%.
